Earlier results in patent US7288270B1, “Therapeutic composition for the prevention and treatment of mucositis and mucosal disorders” (priority 2002, dated 2007).

Columns and labels:
[1] = test system: Gram negative bacteria that tend to colonize the oral cavity; details: patients undergoing radiation therapy
mucositis [2] = details: human, in vivo
eczema = details: ointment, topical
Herpes virus = details: in test tubes
mucositis [3] = details: subsequent randomized and controlled studies
Pseudomonas aeruginosa = details: in the solvent dimethyl sulfoxide; one range given for three species
[4] = test system: dermatophytes (Trichophyton mentagrophytes, Trichophyton tonsurans, Trichophyton rubrum, Epidermophyton floccosum, Microsporum gypseum)
Enterococcus faecalis = details: in the solvent dimethyl sulfoxide; one range given for three species
HSV-1 = details: dose-dependent, reversible manner
Staphylococcus aureus = details: in the solvent dimethyl sulfoxide; one range given for three species
HSV-2 = details: dose-dependent, reversible manner

[H]/N=C(\N/C(=N/[H])NCCCCCCNC(=N)NC(=N)Nc1ccc(Cl)cc1)Nc1ccc(Cl)cc1 [chlorhexidine, Chlorhexidine]
effectiveness against Gram negative bacteria of the oral cavity [1]: relatively ineffective
incidence of mucositis (mucositis [2]): higher incidence of mucositis

CC1(C)[C@@H](O)CC[C@]2(C)[C@H]3C(=O)C=C4[C@@H]5C[C@@](C)(C(=O)O)CC[C@]5(C)CC[C@@]4(C)[C@]3(C)CC[C@@H]12 [glycyrrhetinic acid]
improvement of eczema compared with hydrocortisone (eczema): as effective as hydrocortisone

CC1(C)[C@@H](O[C@H]2O[C@H](C(=O)O)[C@@H](O)[C@H](O)[C@H]2O[C@@H]2O[C@H](C(=O)O)[C@@H](O)[C@H](O)[C@H]2O)CC[C@]2(C)[C@H]3C(=O)C=C4[C@@H]5C[C@@](C)(C(=O)O)CC[C@]5(C)CC[C@@]4(C)[C@]3(C)CC[C@@H]12 [glycyrrhizic acid]
inhibition of herpes virus (Herpes virus): inhibited

CC(=O)CCCCn1c(=O)c2c(ncn2C)n(C)c1=O [pentoxifylline]
benefit in mucositis (mucositis [3]): failed to demonstrate any benefit

Oc1ccc(/C=C/c2cc(O)cc(O)c2)cc1 [resveratrol, 3,5,4′-trihdyroxystilbene]
concentration at which growth was inhibited (Pseudomonas aeruginosa): 171 to 342 µg/mL
concentration at which growth of dermatophytes was inhibited [4]: 25 to 50 µg/mL
concentration at which growth was inhibited (Enterococcus faecalis): 171 to 342 µg/mL
inhibition of HSV-1 replication (HSV-1): inhibit
concentration at which growth was inhibited (Staphylococcus aureus): 171 to 342 µg/mL
inhibition of HSV-2 replication (HSV-2): inhibit
